# Data: patent publication US20240374692A1, “A NOVEL ACYLATED INSULIN ANALOG” (SUNSHINE LAKE PHARMA CO., LTD., priority 2021, published 2024)
# Read-outs that look alike come from different tables or passages of the source.
# Key:
# insulin receptor B = biological target: T1, insulin receptor B (Homo sapiens, UniProt P06213); assay: Insulin receptor B autophosphorylation in transfected cells (Cisbio Phospho-IR beta Tyr1150/1151 kit); type: cell-based; conditions: for Relative HI activity: relative to human insulin
# T1 construct: expressed in transfected cells
# T1 sequence (P06213 28-758 limits assumed): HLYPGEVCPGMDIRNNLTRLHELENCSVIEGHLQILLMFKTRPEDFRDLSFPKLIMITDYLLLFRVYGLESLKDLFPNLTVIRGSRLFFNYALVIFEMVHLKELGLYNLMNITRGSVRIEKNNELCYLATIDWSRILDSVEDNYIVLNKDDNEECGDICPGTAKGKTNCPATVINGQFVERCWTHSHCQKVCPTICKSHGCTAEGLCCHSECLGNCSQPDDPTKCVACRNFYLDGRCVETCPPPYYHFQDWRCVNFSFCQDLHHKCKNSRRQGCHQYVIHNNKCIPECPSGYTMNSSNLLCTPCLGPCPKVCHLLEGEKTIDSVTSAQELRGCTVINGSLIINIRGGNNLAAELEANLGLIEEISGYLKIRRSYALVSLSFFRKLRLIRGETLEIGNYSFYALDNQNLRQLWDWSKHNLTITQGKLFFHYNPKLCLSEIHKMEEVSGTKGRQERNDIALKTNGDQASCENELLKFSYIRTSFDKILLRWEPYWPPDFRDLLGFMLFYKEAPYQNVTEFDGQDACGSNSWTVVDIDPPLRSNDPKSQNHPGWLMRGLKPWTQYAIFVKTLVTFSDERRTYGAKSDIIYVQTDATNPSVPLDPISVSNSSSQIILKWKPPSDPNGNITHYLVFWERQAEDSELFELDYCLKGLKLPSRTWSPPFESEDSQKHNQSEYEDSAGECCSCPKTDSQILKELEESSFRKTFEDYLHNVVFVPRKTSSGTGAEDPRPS
# T1 sequence (P06213 763-1382 partner limits assumed): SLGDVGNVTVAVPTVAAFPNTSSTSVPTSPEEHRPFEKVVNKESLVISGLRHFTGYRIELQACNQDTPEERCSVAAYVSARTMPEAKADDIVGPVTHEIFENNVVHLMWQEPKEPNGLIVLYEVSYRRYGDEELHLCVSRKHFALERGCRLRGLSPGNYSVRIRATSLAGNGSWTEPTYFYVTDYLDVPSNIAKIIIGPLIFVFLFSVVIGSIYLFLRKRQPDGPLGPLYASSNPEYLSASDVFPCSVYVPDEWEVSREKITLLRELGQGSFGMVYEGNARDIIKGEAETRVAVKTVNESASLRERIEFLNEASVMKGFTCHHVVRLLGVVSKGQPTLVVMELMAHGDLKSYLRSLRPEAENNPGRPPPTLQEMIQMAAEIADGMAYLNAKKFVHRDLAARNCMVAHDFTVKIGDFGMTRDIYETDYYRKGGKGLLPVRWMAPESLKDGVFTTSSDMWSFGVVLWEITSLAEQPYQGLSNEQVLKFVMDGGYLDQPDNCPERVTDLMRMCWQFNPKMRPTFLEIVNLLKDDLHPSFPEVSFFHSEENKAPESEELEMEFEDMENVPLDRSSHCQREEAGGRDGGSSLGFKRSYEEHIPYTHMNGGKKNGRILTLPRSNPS
# Protocol: The phosphorylation level of insulin receptor B was detected by Cisbio's Phospho-IR beta (Tyr1150/1151) kit method to evaluate the biological activity of insulin. The cells were seeded into a 96-well plate overnight, and after the serum in the medium was removed, 40 μl of serum-free medium was added to culture for about 4 h. Then a dilution series of insulin derivatives were prepared with blank solution (0.6% casein, 0.06 mg/mL EDTA, 1×DPBS) and incubated with cells in the 96-well plate for 5 min in a CO2 incubator (37° C., 5% CO2). The liquid in the 96-well plate was poured off, 100 µL of a mixture of lysis buffer (2% Triton X-100, 150 mM NaCl, 50 mM HEPES, pH=7) and inhibitor (Blocking Reagent in the kit) was added to lyse the cells, then the plate was shaken at 350 rpm for 30 min. Relative activity (in percent (%)) was assessed by measuring insulin receptor phosphorylation levels in the supernatant after cell lysis and fitting a curve to the data using nonlinear regression in Graphpad Prism 5 software. Related assays were also used, in which the blank solution also contained 1.5% HSA to simulate physiological conditions. Changes in the phosphorylation levels of the insulin-activated insulin receptors of the invention were detected as an indirect reflection of the albumin binding activity.
# normal C57BL/6 mice = assay: Hypoglycemic effect, single subcutaneous administration to normal C57BL/6 mice; type: in vivo; set-up: blood glucose: unit not given here; conditions: for blood glucose: Mean ± SEM, n = 6
# Protocol: SPF grade C57BL/6 mice were reared in a suitable rearing box in a barrier environment, with a rearing temperature of 20-26° C., a humidity of 40-70%, a time between day and night of 12 h/12 h, and the mice had free access to standard food and autoclaved sterilization water. After a 3-day quarantine period and a 2-day acclimation period, random blood glucose was measured and mice were weighed. Mice were divided into 6 groups according to random blood glucose and body weight.
# Single subcutaneous administration (S.C.) was used to administer the corresponding vehicle or drug. The control group was administered the vehicle PBS without fasting during the whole process, and the animals were allowed to eat and drink freely. Random blood glucose values of C57 mice were measured before administration and at 0.25, 0.5, 1, 2, 4, 6, 8, 10, 24, 48, 54, 72 and 96 hours after administration.
# (§1) All raw data were entered into Excel files and expressed as Mean±SEM. Statistical analysis of data was performed using Graphpad Prism 7.0 software, one-way or two-way ANOVA comparison method, and P<0.05 was used as the criterion for significant differences.
# [1] = system: STZ-induced type I diabetes mellitus (T1DM) C57BL/6 mice; assay: Hypoglycemic effect, repeated administration (three times) to STZ-induced T1DM C57BL/6 mice (Example 6); type: in vivo; set-up: key to random blood glucose: blood glucose in mmol/L; conditions: for random blood glucose: 500 nmol/Kg S.C. three times, Mean ± SEM, n = 7
# Protocol: SPF grade C57BL/6 mice were reared in a suitable rearing box in a barrier environment, with a rearing temperature of 20-26° C., a humidity of 40-70%, a time between day and night of 12 h/12 h, and the mice had free access to standard food and autoclaved sterilization water. After the 3-day quarantine period and the 2-day acclimation period, the mice were fasted for 12 h, and the mice were injected intraperitoneally with streptozotocin solution (STZ, 13 mg/mL, in citrate buffer) at 130 mg/kg. 3 Days and 7 days after administration of streptozotocin, random blood glucose and fasting blood glucose were detected, and the random blood glucose value above 25 mmol/L and fasting blood glucose value above 11.1 mmol/L were selected as T1DM model mice for follow-up experiments. On the day before administration, random blood glucose was monitored and mice were weighed. Mice were divided into 6 groups according to random blood glucose and body weight.
# Subcutaneous administration (S.C.) was used to administer the corresponding vehicle or drug, once every 4-5 days, for a total of 3 administrations. During the experiment, the animals were allowed to eat and drink water freely. The random blood glucose before the first administration, and 0.25, 0.5, 1, 2, 4, 6, 8, 10, 24, 48, 72, and 96 h after administration were assessed, as well as the random blood glucose before the second and third administration, and 0.5, 1, 2, 6, 24, 48, 72, 96 and 120 h after administration.
# as §1
# [2] = rat, in vivo, iv, 10 nmol/kg
# [3] = mouse, in vivo, sc, 10 nmol/kg
# [4] = single S.C., Degludec 200 nmol/Kg, others 1400 nmol/Kg
substance,measurement,setting,value
"A14E, B16E, B25H, B29K(N(ε)-COOH(CH2)18CO-L-Lys-CO(CH2)2CO—(OEG)2), desB30 human insulin analog [Insulin-a3]",EC50,insulin receptor B; 0% HSA,213 nM
same,Relative HI activity,insulin receptor B; 0% HSA,0.58%
same,EC50,insulin receptor B; 1.5% HSA,4490 nM
same,Relative 0% HSA activity,insulin receptor B; 1.5% HSA relative to 0% HSA,5.86%
same,Relative HI activity,insulin receptor B; 1.5% HSA,0.06%
same,blood glucose,"normal C57BL/6 mice; 0 h (before administration), single S.C., Degludec 200 nmol/Kg, others 1400 nmol/Kg",8.0 ± 1.0
same,blood glucose,"normal C57BL/6 mice; 0.25 h after single S.C., Degludec 200 nmol/Kg, others 1400 nmol/Kg",8.6 ± 1.0
same,blood glucose,"normal C57BL/6 mice; 0.5 h after single S.C., Degludec 200 nmol/Kg, others 1400 nmol/Kg",6.2 ± 0.4
same,blood glucose compared with the control group,normal C57BL/6 mice; 1 h after single S.C. administration,decreased significantly
same,blood glucose,"normal C57BL/6 mice; 1 h after single S.C., Degludec 200 nmol/Kg, others 1400 nmol/Kg",4.9 ± 0.8
same,blood glucose,"normal C57BL/6 mice; 2 h after single S.C., Degludec 200 nmol/Kg, others 1400 nmol/Kg",4.5 ± 1.0
same,blood glucose,"normal C57BL/6 mice; 4 h after single S.C., Degludec 200 nmol/Kg, others 1400 nmol/Kg",3.9 ± 0.7
same,blood glucose,"normal C57BL/6 mice; 6 h after single S.C., Degludec 200 nmol/Kg, others 1400 nmol/Kg",3.7 ± 0.5
same,blood glucose,"normal C57BL/6 mice; 8 h after single S.C., Degludec 200 nmol/Kg, others 1400 nmol/Kg",3.8 ± 0.5
same,blood glucose,"normal C57BL/6 mice; 10 h after single S.C., Degludec 200 nmol/Kg, others 1400 nmol/Kg",3.5 ± 0.7
same,blood glucose,"normal C57BL/6 mice; 24 h after single S.C., Degludec 200 nmol/Kg, others 1400 nmol/Kg",2.9 ± 1.0
same,blood glucose,"normal C57BL/6 mice; 48 h after single S.C., Degludec 200 nmol/Kg, others 1400 nmol/Kg",4.2 ± 2.0
same,blood glucose,"normal C57BL/6 mice; 72 h after single S.C., Degludec 200 nmol/Kg, others 1400 nmol/Kg",5.4 ± 2.6
same,blood glucose,"normal C57BL/6 mice; 96 h after single S.C., Degludec 200 nmol/Kg, others 1400 nmol/Kg",8.8 ± 1.1
same,effect on blood glucose control compared with Icodec,normal C57BL/6 mice; single S.C. 1400 nmol/Kg,slightly worse
same,effective blood glucose control time,normal C57BL/6 mice; [4],96 h
same,time after administration at which blood glucose reached the lowest level,normal C57BL/6 mice; [4],24 h
same,effective glucose control time,[1]; 500 nmol/Kg S.C.,96 to 120 h
same,random blood glucose,[1]; Day 0 (1st),31.8 ± 3.2
same,random blood glucose,[1]; Day 1,20.7 ± 5.2
same,random blood glucose,[1]; Day 4 (2nd),29.7 ± 3.7
same,random blood glucose,[1]; Day 5,20.1 ± 5.4
same,random blood glucose,[1]; Day 9 (3rd),27.7 ± 6.2
same,random blood glucose,[1]; Day 10,16.0 ± 9.4
same,random blood glucose,[1]; Day 14,27.4 ± 6.3
same,time after administration at which blood glucose returned to normal level,"[1]; 500 nmol/Kg S.C., after the first and second administrations",96 h
same,time after administration at which blood glucose returned to normal level,"[1]; 500 nmol/Kg S.C., after the third administration",120 h
same,time after each administration at which blood glucose reached the lowest level,"[1]; Icodec 250, 500 and 1000 nmol/kg, Insulin-a3 and Insulin-a10 500 nmol/Kg",24 h
same,glucose control effect compared with the Icodec-500 nmol/kg group,[1]; test drug 500 nmol/Kg S.C.,better
same,glucose control effect compared with the Icodec-1000 nmol/kg group,[1]; test drug 500 nmol/Kg S.C.,slightly worse
same,AUClast,[2],9170 ng·h/mL
same,T1/2,[2],11.2 ± 1.9 h
same,AUClast,[3],12300 ng·h/mL
same,T1/2,[3],18.6 h
